Measurements reported in patent US9540378B2, “Composition comprising purine derivatives or salt thereof for preventing or treating atopic dermatitis” (DAEWOONG CO., LTD., priority 2012, dated 2017).
Marks after values point to notes of the source that are not given here.

Tests used:
[1] = tested on: NC/Nga mice, animal models of atopic dermatitis; test: In vivo inhibitory activity against atopic dermatitis in 2,4-DNFB-induced NC/Nga mice; conditions: for Reducing ratio (%) Dermatitis score: applied on affected sites twice per day for 10 days; for Reducing ratio (%) Dermatitis score / Reducing ratio (%) Difference of left and right ear thicknesses / Reducing ratio (%) Epidermis thickness / Reducing ratio (%) Number of mast cells / Reducing ratio (%) Serum IgE level: vs atopic control group; for Reducing ratio (%) Difference of left and right ear thicknesses / Reducing ratio (%) Epidermis thickness / Reducing ratio (%) Number of mast cells / Reducing ratio (%) Serum IgE level: topical, 10 days
Experimental: NC/Nga mice (male, 6 weeks old), animal models of atopic dermatitis, were subject to complete hair removal of the back skin, and then left for 24 hours for healing the minute wounds on the skin. Atopic dermatitis was induced to the mice as follows. That is, a 0.2% solution of 2,4-DNFB (2,4-dinitrofluorobenzene) was prepared by dissolving in a mixed solvent of acetone and olive oil (3:1, v/v). The solution (150 μl) was applied on the hair-removed site of each mouse twice per week for 4 weeks, to induce atopic dermatitis.
The normal control group (NC) was subject to only complete hair removal of the back skin. In case of the atopic dermatitis-induced atopic control group (AC), only Vaseline was applied on the hair-removed sites. […] Each group includes 8 mice.
The therapeutic activity against atopic dermatitis was evaluated through measuring dermatitis scores, epidermis thicknesses, left and right ear thicknesses, serum IgE levels, and numbers of mast cells.
The dermatitis scores were determined by observing the affected sites at the time when the treatments were completed, and then evaluating the visual changes such as erythema, bleeding, scab, etc., so as to yield the scores ranging from 1 to 10. From the resulting dermatitis scores, the inhibition ratio of each test group was calculated in comparison with the atopic control group.
Skin tissue was taken in a size of 1 cm×1 cm from the central area of each affected site, fixed with 10% formaldehyde solution, embedded in paraffin film, and then cut into a 4 μm section. Each tissue section was subject to hematoxylin-eosin (H&E) staining, and then observed with an optical microscope (×200, 5 sites per tissue) so as to calculate the epidermis thickness thereof.
The left and right ear thicknesses were measured with a digital vernier caliper, at the time when the test was started and at the time when the test was completed.
The serum IgE level was measured in the blood collected from the heart of each group mice, according to ELISA (Enzyme-linked immunosorbent assay) methods.
Skin tissue was taken in a size of 0.5 cm×1 cm from the central area of each affected site, fixed with IHC zinc fixative formalin-free solution, embedded in paraffin film, and then cut into a 4 μm section. Each tissue section was adhered on a slide coated with poly-L-lysine, followed by removing the paraffin and hydrating. Each resulting section was subject to toluidine blue staining, and then observed with an optical microscope (×200, 3 sites per tissue) so as to measure the number of mast cells.
All measurement values were calculated in mean±standard deviation. Statistical significances were determined with ANOVA. ≦5% is considered as being statistically significant.

[2] = tested on: IL-6; test: Inhibition of inflammatory cytokine mRNA expression (RT-PCR) in LPS-treated Raw264.7 cells: IL-6; assay type: cell-based, mouse; conditions: 400 uM, LPS 1 ug/ml, 24 hours
Experimental: (§1) The inhibitory activity of the compound of Formula 1 was evaluated against the expressions of inflammatory cytokines of atopic dermatitis, i.e., IL-6, IL-10, IL-12p40, and COX-2. Briefly, the Raw264.7 mouse macrophage cell line (ATCC TIB-71) (about 1×10^6 cells) was added into the each well of a 12-well plate and then incubated in a RPMI medium supplemented with 100 U/ml penicillin, 100 ug/ml streptomycin and 10% fetal bovine serum. The cells were treated with the compound of Formula 1 (400 uM) and LPS (1 ug/ml), and then incubated under the condition of 37° C., 5% CO2 for 24 hours. The cells isolated from each group of the medium were treated with a Trizol reagent to extract the total RNA. Each cDNA was prepared according to the vendor's instruction, using a First strand cDNA synthesis kit (Fermentas). The resulting cDNAs (in the same amount for each cDNA) were subject to PCR amplification. The sense and antisense primers used were prepared according to the disclosures, i.e., Zhi-Qiang Chang et al., J. Nutr. Sci. Vitaminol., 2011, 27, p 118-122, JiYeon Lee et al., Biol. Pharm. Bull., 2007, 30(11), p 2043-2051, E. V. Maryukhnich et al., Biol. Sci., 2007, 414, p 242-245. […]

[3] = tested on: IL-10; test: Inhibition of inflammatory cytokine mRNA expression (RT-PCR) in LPS-treated Raw264.7 cells: IL-10; assay type: cell-based, mouse; conditions: 400 uM, LPS 1 ug/ml, 24 hours
Experimental: as §1

[4] = tested on: IL-12p40; test: Inhibition of inflammatory cytokine mRNA expression (RT-PCR) in LPS-treated Raw264.7 cells: IL-12p40; assay type: cell-based, mouse; conditions: 400 uM, LPS 1 ug/ml, 24 hours
Experimental: as §1

[5] = tested on: COX-2; test: Inhibition of inflammatory cytokine mRNA expression (RT-PCR) in LPS-treated Raw264.7 cells: COX-2; assay type: cell-based, mouse; conditions: 400 uM, LPS 1 ug/ml, 24 hours
Experimental: as §1

[6] = 0.03% and 0.1%, applied on affected sites for 10 days

## Cn1c(N)nc2c(ncn2C)c1=O [compound of Formula 1, 2-amino-1,9-dimethylpurin-6-one]
[1]; [6]
  dermatitis scores, in words: significantly reduced
  differences of left and right ear thicknesses, in words: significantly reduced
  epidermis thicknesses, in words: significantly reduced
  numbers of mast cells, in words: significantly reduced
  serum IgE levels, in words: significantly reduced
[1]; Test group 1 (0.03%)
  Reducing ratio (%) Dermatitis score: 8.96* %
  Reducing ratio (%) Difference of left and right ear thicknesses: 7.69%
  Reducing ratio (%) Epidermis thickness: 36.13*** %
  Reducing ratio (%) Number of mast cells: 7.7%
  Reducing ratio (%) Serum IgE level: 51.76%
[1]; Test group 2 (0.1%)
  Reducing ratio (%) Dermatitis score: 24.00*** %
  Reducing ratio (%) Difference of left and right ear thicknesses: 38.46%
  Reducing ratio (%) Epidermis thickness: 52.63*** %
  Reducing ratio (%) Number of mast cells: 24.9** %
  Reducing ratio (%) Serum IgE level: 56.46** %
[2]
  IL-6 mRNA expression level: effectively inhibited
[3]
  IL-10 mRNA expression level: effectively inhibited
[4]
  IL-12p40 mRNA expression level: effectively inhibited
[5]
  COX-2 mRNA expression level: effectively inhibited
